Where two headings read alike, the source gives them in different places.
Experiments:
Galectin-3 = Galectin-3 (Homo sapiens, UniProt P17931); experiment: fluorescence anisotropy assay, compound as inhibitor of galectin / fluorescein tagged saccharide probe interaction; assay type: binding
Source text: (§1) Anal. Biochem. 334: 36-47, (Sörme et al., 2004) and Monovalent interactions of Galectin-1 By Salomonsson, Emma; Larumbe, Amaia; Tejler, Johan; Tullberg, Erik; Rydberg, Hanna; Sundin, Anders; Khabut, Areej; Frejd, Torbjorn; Lobsanov, Yuri D.; Rini, James M.; et al, From Biochemistry (2010), 49(44), 9518-9532, (Salomonsson et al., 2010).

Galectin-1 = Galectin-1 (Homo sapiens, UniProt P09382); experiment: as above; assay type: binding
Source text: as §1

Sequence of Galectin-3 (P17931 whole entry): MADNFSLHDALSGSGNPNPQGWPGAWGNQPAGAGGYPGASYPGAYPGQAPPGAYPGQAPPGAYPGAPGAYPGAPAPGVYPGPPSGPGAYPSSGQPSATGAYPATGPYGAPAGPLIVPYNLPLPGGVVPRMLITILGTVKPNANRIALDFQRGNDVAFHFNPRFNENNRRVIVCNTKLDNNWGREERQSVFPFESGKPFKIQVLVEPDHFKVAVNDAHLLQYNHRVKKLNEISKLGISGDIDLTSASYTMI
Sequence of Galectin-1 (P09382 whole entry): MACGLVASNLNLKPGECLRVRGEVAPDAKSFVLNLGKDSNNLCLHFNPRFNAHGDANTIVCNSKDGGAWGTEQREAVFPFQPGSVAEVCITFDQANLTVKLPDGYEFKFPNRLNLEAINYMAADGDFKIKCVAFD

SMILES: CO[C@@H]1[C@@H](n2cc(-c3csc(N)n3)nn2)[C@@H](O)[C@@H](CO)O[C@@H]1Sc1cc(Cl)cnc1-c1ncco1 [Example 27, 5-Chloro-2-(oxazol-2-yl)pyridin-3-yl 3-[4-(2-aminothiazol-4-yl)-1H-1,2,3-triazol-1-yl]-3-deoxy-2-O-methyl-1-thio-α-D-galactopyranoside]
- Kd (Galectin-3): 3200 nM
- Kd (Galectin-1): 28 nM

SMILES: COC1C(n2cc(-c3csc(N)n3)nn2)[C@@H](O)C(CO)O[C@@H]1Sc1ccc(Cl)c(Cl)c1 (stereo partly drawn) [Example 28, 3,4-Dichlorphenyl 3-[4-(2-aminothiazol-4-yl)-1H-1,2,3-triazol-1-yl]-3-deoxy-2-O-methyl-1-thio-α-D-galactopyranoside]
- Kd (Galectin-3): 2400 nM
- Kd (Galectin-1; read-out: Galectin-1 Kd): 63 nM

SMILES: CO[C@@H]1[C@@H](n2cc(-c3csc(N)n3)nn2)[C@@H](O)[C@@H](CO)O[C@@H]1Sc1cc(Cl)cnc1-c1nccs1 [Example 29, 5-Chloro-2-(thiazol-2-yl)pyridin-3-yl 3-[4-(2-aminothiazol-4-yl)-1H-1,2,3-triazol-1-yl]-3-deoxy-2-O-methyl-1-thio-α-D-galactopyranoside]
- Kd (Galectin-3): 8700 nM
- Kd (Galectin-1): 48 nM

SMILES: CO[C@@H]1[C@@H](n2cc(-c3csc(N)n3)nn2)[C@@H](O)[C@@H](CO)O[C@@H]1Sc1ccc(C(F)(F)F)c(Cl)c1 [Example 30, 3-Chloro-4-(trifluoromethyl)phenyl 3-[4-(2-aminothiazol-4-yl)-1H-1,2,3-triazol-1-yl]-3-deoxy-2-O-methyl-1-thio-α-D-galactopyranoside]
- Kd (Galectin-3): 2500 nM
- Kd (Galectin-1): 120 nM

SMILES: CO[C@@H]1[C@@H](n2cc(-c3csc(N)n3)nn2)[C@@H](O)[C@@H](CO)O[C@@H]1Sc1cccc(Cl)c1 [Example 31, 3-Chlorophenyl 3-[4-(2-aminothiazol-4-yl)-1H-1,2,3-triazol-1-yl]-3-deoxy-2-O-methyl-1-thio-α-D-galactopyranoside]
- Kd (Galectin-3): 5600 nM
- Kd (Galectin-1): 200 nM

SMILES: Cc1sc(N)nc1-c1cn(C2C(O)[C@@H](Sc3cnc(C(F)(F)F)c(Br)c3)OC(CO)[C@@H]2O)nn1 (stereo partly drawn) [Example 33]
- Kd (Galectin-3): 3000 nM
- Kd (Galectin-1): 500 nM

SMILES: CO[C@@H]1[C@@H](n2cc(-c3nc(C)cs3)nn2)[C@@H](O)[C@@H](CO)O[C@@H]1Sc1cc(Br)cnc1C#N [Example 34, 5-Bromo-2-cyanopyridin-3-yl 3-deoxy-3-[4-(4-methylthiazol-2-yl)-1H-1,2,3-triazol-1-yl]-2-O-methyl-1-thio-α-D-galactopyranoside]
- Kd (Galectin-3): 1400 nM
- Kd (Galectin-1): 53 nM

SMILES: CO[C@@H]1[C@@H](n2cc(-c3nc(C)cs3)nn2)[C@@H](O)[C@@H](CO)O[C@@H]1Sc1cc(C)cnc1C#N [Example 35, 2-Cyano-5-methylpyridin-3-yl 3-deoxy-3-[4-(4-methylthiazol-2-yl)-1H-1,2,3-triazol-1-yl]-2-O-methyl-1-thio-α-D-galactopyranoside]
- Kd (Galectin-3): 9000 nM
- Kd (Galectin-1): 490 nM

SMILES: CO[C@@H]1[C@@H](n2cc(-c3nc(Cl)cs3)nn2)[C@@H](O)[C@@H](CO)O[C@@H]1Sc1cc(C)cnc1C#N [Example 36, 2-Cyano-5-methylpyridin-3-yl 3-[4-(4-chlorothiazol-2-yl)-1H-1,2,3-triazol-1-yl]-3-deoxy-2-O-methyl-1-thio-α-D-galactopyranoside]
- Kd (Galectin-3): 700 nM
- Kd (Galectin-1): 190 nM

SMILES: C#Cc1cncc(S[C@H]2O[C@H](CO)[C@H](O)[C@H](n3cc(-c4nc(Cl)cs4)nn3)[C@H]2OC)c1 [Example 37, 5-Ethynylpyridin-3-yl 3-[4-(4-chlorothiazol-2-yl)-1H-1,2,3-triazol-1-yl]-3-deoxy-2-O-methyl-1-thio-α-D-galactopyranoside]
- Kd (Galectin-3): 390 nM
- Kd (Galectin-1): 200 nM

SMILES: COC1C(n2cc(-c3csc(N)n3)nn2)[C@@H](O)C(CO)O[C@@H]1Sc1cc(Cl)cnc1N1CC2(COC2)C1 (stereo partly drawn) [Example 38, 5-Chloro-2-{N-(2-oxa)-6-azaspiro[3.3]heptanyl}-pyridin-3-yl 3-[4-(2-aminothiazol-4-yl)-1H-1,2,3-triazol-1-yl]-3-deoxy-2-O-methyl-1-thio-α-D-galactopyranoside]
- Kd (Galectin-3): 6100 nM
- Kd (Galectin-1): 100 nM

SMILES: CO[C@@H]1[C@@H](n2cc(-c3csc(N)n3)nn2)[C@@H](O)[C@@H](CO)O[C@@H]1Sc1ccc(C#N)c(Cl)c1 [Example 39, 3-Chloro-4-cyanophenyl 3-[4-(2-aminothiazol-4-yl)-1H-1,2,3-triazol-1-yl]-3-deoxy-2-O-methyl-1-thio-α-D-galactopyranoside]
- Kd (Galectin-3): 3600 nM
- Kd (Galectin-1): 71 nM

SMILES: CO[C@@H]1[C@@H](n2cc(-c3csc(N)n3)nn2)[C@@H](O)[C@@H](CO)O[C@@H]1Sc1cncc(C#N)c1 [Example 40, 5-Cyanopyridin-3yl 3-[4-(2-aminothiazol-4-yl)-1H-1,2,3-triazol-1-yl]-3-deoxy-2-O-methyl-1-thio-α-D-galactopyranoside]
- Kd (Galectin-3): 10700 nM
- Kd (Galectin-1): 240 nM

SMILES: OC[C@H]1O[C@H](Sc2cc(Cl)c(F)c(Cl)c2)C[C@@H](n2cc(-c3csc(O)n3)nn2)[C@H]1O [Example 41, 3,5-Dichloro-4-fluorophenyl 2,3-dideoxy-3-[4-(2-hydroxythiazol-4-yl)-1H-1,2,3-triazol-1-yl]-1-thio-α-D-galactopyranoside]
- Kd (Galectin-3): 9300 nM
- Kd (Galectin-1): 130 nM

SMILES: N#Cc1ccc(S[C@@H]2C[C@@H](n3cc(-c4csc(N)n4)nn3)[C@@H](O)[C@@H](CO)O2)cc1Cl [Example 42, 3-Chloro-4-cyanophenyl 3-[4-(2-aminothiazol-4-yl)-1H-1,2,3-triazol-1-yl]-2,3-dideoxy-1-thio-α-D-galactopyranoside]
- Kd (Galectin-3): 10300 nM
- Kd (Galectin-1): 730 nM

SMILES: N#Cc1ccc(Cl)cc1S[C@@H]1C[C@@H](n2cc(-c3nc(Cl)cs3)nn2)[C@@H](O)[C@@H](CO)O1 [Example 43, 5-Chloro-2-cyanophenyl 3-[4-(4-chlorothiazol-2-yl)-1H-1,2,3-triazol-1-yl]-2,3-dideoxy-1-thio-α-D-galactopyranoside]
- Kd (Galectin-3): 1200 nM
- Kd (Galectin-1): 130 nM

SMILES: CO[C@@H]1[C@@H](n2cc(-c3csc(N)n3)nn2)[C@@H](O)[C@@H](CO)O[C@@H]1Sc1cnc(C(F)(F)F)c(C#N)c1 [Example 44, 3-Cyano-2-(trifluoromethyl)pyridin-5-yl 3-[4-(2-aminothiazol-4-yl)-1H-1,2,3-triazol-1-yl]-3-deoxy-2-O-methyl-1-thio-α-D-galactopyranoside]
- Kd (Galectin-3): 16700 nM
- Kd (Galectin-1): 360 nM

SMILES: COC1C(n2cc(-c3nc(Cl)cs3)nn2)[C@@H](O)C(CO)O[C@@H]1Sc1cc(Cl)cnc1C(=O)N1CCC1 (stereo partly drawn) [Example 45, 5-Chloro-2-(N-azetidinylcarbamoyl)-3-pyridinyl 3-[4-(4-chlorothiazol-2-yl)-1H-1,2,3-triazol-1-yl]-3-deoxy-2-O-methyl-1-thio-α-D-galactopyranoside]
- Kd (Galectin-3): 74 nM
- Kd (Galectin-1): 22 nM

SMILES: CO[C@@H]1[C@@H](n2cc(-c3nc(C)cs3)nn2)[C@@H](O)[C@@H](CO)O[C@@H]1Sc1cc(Cl)cnc1-c1ccccn1 [Example 46, 5-Chloro-2-(pyridin-2-yl)pyridin-3-yl 3-deoxy-3-[4-(4-methylthiazol-2-yl)-1H-1,2,3-triazol-1-yl]-2-O-methyl-1-thio-α-D-galactopyranoside]
- Kd (Galectin-3): 2530 nM
- Kd (Galectin-1): 35 nM

SMILES: C#Cc1cncc(S[C@H]2O[C@H](CO)[C@H](O)[C@H](n3cc(-c4nccs4)nn3)[C@H]2OC)c1 [Example 47, 5-Ethynylpyridin-3-yl 3-deoxy-2-O-methyl-3-[4-(2-thiazolyl)-1H-1,2,3-triazol-1-yl]-1-thio-α-D-galactopyranoside]
- Kd (Galectin-3): 3200 nM
- Kd (Galectin-1): 570 nM

SMILES: OC[C@H]1O[C@H](Sc2cncc(Cl)c2)[C@H](O)[C@@H](n2cc(-c3nc(Cl)cs3)nn2)[C@H]1O [Example 48, 5-Chloropyridin-3-yl 3-[4-(4-chlorothiazol-2-yl)-1H-1,2,3-triazol-1-yl]-3-deoxy-1-thio-α-D-galactopyranoside]
- Kd (Galectin-3): 420 nM
- Kd (Galectin-1): 150 nM

SMILES: OC[C@H]1O[C@H](Sc2cncc(Br)c2)[C@H](O)[C@@H](n2cc(-c3nc(Cl)cs3)nn2)[C@H]1O [Example 49, 5-Bromopyridin-3-yl 3-[4-(4-chlorothiazol-2-yl)-1H-1,2,3-triazol-1-yl]-3-deoxy-1-thio-α-D-galactopyranoside]
- Kd (Galectin-3): 190 nM
- Kd (Galectin-1): 150 nM

SMILES: N#Cc1ccc(Cl)cc1S[C@H]1O[C@H](CO)[C@H](O)[C@H](n2cc(-c3nc(Cl)cs3)nn2)[C@H]1O [Example 50, 5-Chloro-2-cyanophenyl 3-[4-(4-chlorothiazol-2-yl)-1H-1,2,3-triazol-1-yl]-3-deoxy-1-thio-α-D-galactopyranoside]
- Kd (Galectin-3): 230 nM
- Kd (Galectin-1): 110 nM

SMILES: N#Cc1cc(Cl)cc(S[C@H]2O[C@H](CO)[C@H](O)[C@H](n3cc(-c4nc(Cl)cs4)nn3)[C@H]2O)c1 [Example 51, 3-Chloro-5-cyanophenyl 3-[4-(4-chlorothiazol-2-yl)-1H-1,2,3-triazol-1-yl]-3-deoxy-1-thio-α-D-galactopyranoside]
- Kd (Galectin-3): 370 nM
- Kd (Galectin-1): 250 nM

SMILES: N#Cc1ccc(S[C@H]2O[C@H](CO)[C@H](O)[C@H](n3cc(-c4nc(Cl)cs4)nn3)[C@H]2O)cc1Cl [Example 52, 3-Chloro-4-cyanophenyl 3-[4-(4-chlorothiazol-2-yl)-1H-1,2,3-triazol-1-yl]-3-deoxy-1-thio-α-D-galactopyranoside]
- Kd (Galectin-3): 410 nM
- Kd (Galectin-1): 170 nM

SMILES: CO[C@@H]1[C@@H](n2cc(-c3nc(Cl)cs3)nn2)[C@@H](O)[C@@H](CO)O[C@@H]1Sc1cncc(Cl)c1 [Example 53, 5-Chloropyridin-3-yl 3-[4-(4-chlorothiazol-2-yl)-1H-1,2,3-triazol-1-yl]-3-deoxy-2-O-methyl-1-thio-α-D-galactopyranoside]
- Kd (Galectin-3): 340 nM
- Kd (Galectin-1): 54 nM

SMILES: CO[C@@H]1[C@@H](n2cc(-c3nc(Cl)cs3)nn2)[C@@H](O)[C@@H](CO)O[C@@H]1Sc1cncc(Br)c1 [Example 54, 5-Bromopyridin-3-yl 3-[4-(4-chlorothiazol-2-yl)-1H-1,2,3-triazol-1-yl]-3-deoxy-2-O-methyl-1-thio-α-D-galactopyranoside]
- Kd (Galectin-3): 190 nM
- Kd (Galectin-1): 90 nM

Reference: US12441754B2, “Galactoside inhibitor of galectins” (GALECTO BIOTECH AB, priority 2019, dated 2025)
